Data from US6197760A (priority 2000, dated 2001).
Entries after “also recorded” stand apart in the source; their conditions may differ. Read-outs that look alike come from different tables or passages of the source.

Experiments:
[1] = system: MCF-7 mammary tumor xenograft; design: species or system human; details: in vivo; for Days delay (T-C): sc
HeLa cells = details: in vitro; cited from earlier work
P388 leukemia [2] = system: P388 leukemia; design: species or system murine; details: mouse, in vivo; for 45-Day Surv/Total / % ILS / Approx. Net Log10 Change In Tumor Burden at End of Rx / Median Day of Death: ip, 100 mg/kg
M5076 sarcoma [3] = assay: Response of s.c. implanted M5076 sarcoma (Table 4); assay type: in vivo, murine; details: for days T-C: Table 4, dose not given
Procedure: Response of S.C. Implanted M5076 Sarcoma to Treatment with
The compounds were injected i.p. daily on days 11-15.

mammary tumor 16/C = system: mammary tumor 16/C; design: species or system murine; details: mouse, in vivo
[4] = system: MX-1 mammary tumor xenograft; assay type: in vivo, human
LOX-IMVI melanoma = assay: Evaluation against i.p. implanted LOX-IMVI melanoma (Table 6); assay type: in vivo, human; details: for 55-Day Surv./Total / % ILS / Median Day of Death: IP, Q1DX1 (1); for increase in life span (ILS) / survivors: Table 6
Procedure: BM-IPM was evaluated vs. human LOX-IMVI melanoma and produced a 52% increase in life span (ILS) and 20% survivors, while IPM yielded an identical ILS with no survivors.
Evaluation of BM-IPM Against I.P. Implanted Human
Treatment: IP: Q1DX1 (1) Therapeutic Response

[5] = system: experimental leukemias and solid tumors; design: species or system mice and rats; details: in vivo
L1210/CPA leukemia = assay type: in vivo, male CDF1 mice
Lewis lung carcinoma = details: mouse, in vivo; for % ILS (increase in life span, excluding survivors) / Log kill total (Log10 cell kill) / Tumour-free survivors: ip
P388 leukemia [6] = details: cited from earlier work
M5076 sarcoma [7] = details: cited from earlier work
in vivo [8] = details: mouse, ip
in vivo [9] = details: mouse, ip; remark: listed apart in the source
[10] = clinical; cited from earlier work
[11] = patients treated with Ifos; cited from earlier work
[12] = system: mixedfunction oxidase activities (cytochrome P-450, aryl hydrocarbon hydroxylase, aminopyrinedemethylase); glutathione; details: cited from earlier work
[13] = metabolite of CPA; cited from earlier work
[14] = 18 mg/kg i.p. daily on days 11-15
[15] = 27 mg/kg i.p. daily on days 11-15
[16] = 40 mg/kg i.p. daily on days 11-15
[17] = L1210/CPA, i.p. day 2 only at MTD (CPA 200, Ifos 431, IPM 100 mg/kg)
[18] = L1210/CPA, i.p. day 2 only at MTD (CPA 200, Ifos 431, IPM 100 mg/kg), tumor burden at start 6.0 × 10^7 cells
[19] = L1210/0, i.p. day 2 only at MTD (CPA 200, Ifos 431, IPM 100 mg/kg)
[20] = L1210/0, i.p. day 2 only at MTD (CPA 200, Ifos 431, IPM 100 mg/kg), tumor burden at start 8.5 × 10^8 cells
[21] = MTD Dosage (highest non-toxic dose, LD10 or less)

## O=P(O)(NCCBr)NCCBr [BB-IPM]
[1]
  Days delay (T-C): 1.7
HeLa cells
  cytotoxicity to HeLa cells: cytotoxic to HeLa cells in vitro

## O=P(O)(NCCCl)NCCBr [BC-IPM]
[1]
  Days delay (T-C): 5.8
HeLa cells
  cytotoxicity to HeLa cells: cytotoxic to HeLa cells in vitro

## CS(=O)(=O)OCCNP(=O)(O)NCCBr [BM-IPM]
P388 leukemia [2]
  log cell kill: 5.5 log
  45-Day Surv/Total: 0/5
  % ILS: +73
  Approx. Net Log10 Change In Tumor Burden at End of Rx: -5.5
  Median Day of Death: 19.0
M5076 sarcoma [3]; [14]
  Days delay (T-C): 0.8 days
  Days to 2 Doublings: 10.1 days
  Tumor-free Surv/Total: 0/6
M5076 sarcoma [3]; [15]
  Days delay (T-C): 7.2 days
  Days to 2 Doublings: 16.5 days
  Tumor-free Surv/Total: 0/6
M5076 sarcoma [3]; [16]
  Days to 2 Doublings: Toxic
  Tumor-free Surv/Total: 0/6
M5076 sarcoma [3]
  days T-C: 7.2 days
Mammary tumor 16/C
  tumor response / comparative activity vs. 16/C: superior to the clinical drugs CPA and Ifos and to MM-IPM
[1]
  Days delay (T-C): 4.7
[4]; experiment analogous to MCF-7
  activity vs. MX-1: good activity; also recorded: more active but less so than CPA and Ifos
LOX-IMVI melanoma
  comparative activity vs. LOX melanoma: comparably active to IPM but less active than CPA
  increase in life span (ILS): 52%
  survivors: 20%
LOX-IMVI melanoma; 15 mg/kg/dose
  55-Day Surv./Total: 0/5
  % ILS: +26%
  Median Day of Death: 24.0 days
LOX-IMVI melanoma; 30 mg/kg/dose
  55-Day Surv./Total: 1/5
  % ILS: +52%
  Median Day of Death: 29.0 days

## CS(=O)(=O)OCCCNP(=O)(O)NCCCl [CM3-IPM]
P388 leukemia [2]
  45-Day Surv/Total: 0/5
  % ILS: +9
  Approx. Net Log10 Change In Tumor Burden at End of Rx: -0.7
  Median Day of Death: 12.0

## CS(=O)(=O)OCCNP(=O)(O)NCCCl [CM-IPM]
P388 leukemia [2]
  log cell kill: 6.1 log
  45-Day Surv/Total: 0/5
  % ILS: +82
  Approx. Net Log10 Change In Tumor Burden at End of Rx: -6.1
  Median Day of Death: 20.0
M5076 sarcoma [3]; [14]
  Days delay (T-C): 2.3 days
  Days to 2 Doublings: 11.6 days
  Tumor-free Surv/Total: 0/6
M5076 sarcoma [3]; [15]
  Days delay (T-C): 12.2 days
  Days to 2 Doublings: 21.5 days
  Tumor-free Surv/Total: 0/6
M5076 sarcoma [3]; [16]
  Days delay (T-C): 23.2 days
  Days to 2 Doublings: 32.5 days
  Tumor-free Surv/Total: 0/6
M5076 sarcoma [3]
  days T-C: 23.2 days
Mammary tumor 16/C
  tumor response / comparative activity vs. 16/C: superior to the clinical drugs CPA and Ifos and to MM-IPM; also recorded: comparable to BM-IPM vs. 16/C mammary tumor, and superior to CPA and Ifos vs. 16/C tumor
[1]
  comparative activity vs. MCF-7: equal in activity to Ifos, slightly superior to IPM and melphalan (the positive control) and significantly superior to CPA and all of the other analogs; also recorded: superior to MM-IPM, BC-IPM and CPA, slightly more active than IPM, and equally active to Ifos
  Days delay (T-C): > 39.7
[4]; experiment analogous to MCF-7
  activity vs. MX-1: only modest activity; also recorded: modestly active relative to CPA and Ifos
[5]
  comparative activity vs. three experimental leukemias and solid tumors: superior to IPM and other IPM analogs, including MM-IPM, vs. all three tumors

## O=P1(N(CCCl)CCCl)NCCCO1 (stereo not shown) [CPA, cyclophosphamide]
L1210/CPA leukemia; [17]
  % ILS (dying mice only): +57%
  Net log10 reduction in tumor burden after therapy: 4 log10
L1210/CPA leukemia; [18]
  Day 60 survivors/total: 0/10
Mammary tumor 16/C
  tumor response / comparative activity vs. 16/C: none of which caused tumor regression
[1]
  Days delay (T-C): 6.7
[4]; experiment analogous to MCF-7
  activity vs. MX-1: high activity
LOX-IMVI melanoma; 40 mg/kg/dose
  55-Day Surv./Total: 0/5
  % ILS: +121%
  Median Day of Death: 42.0 days
LOX-IMVI melanoma
  increase in life span (ILS): 121%
  survivors: no survivors
L1210/0 leukemia; [19]
  % ILS (dying mice only): +107%
  Net log10 reduction in tumor burden after therapy: 7 log10
L1210/0 leukemia; [20]
  Day 60 survivors/total: 0/10
Lewis lung carcinoma
  comparative activity against Lewis lung carcinoma: equivalent activity at equal host toxicity
  cure rate: 50-70%
  % ILS (increase in life span, excluding survivors): 68
  Log kill total (Log10 cell kill): > 6.8
  Tumour-free survivors: 5/10
P388 leukemia [6]; historical
  comparative activity vs. P388 leukemia, historically: comparably active to CM-IPM
M5076 sarcoma [7]; historical
  comparative activity vs. M5076 sarcoma, historically: comparably active to CM-IPM
In vivo [8]
  MTD: 200 mg/kg
In vivo [9]
  MTD: 200 mg/kg
[10]
  toxicity in patients: hemorrhagic cystitis

## CS(=O)(=O)OCCNP(=O)(O)NCCF [FM-IPM]
P388 leukemia [2]
  45-Day Surv/Total: 0/5
  % ILS: +10
  Approx. Net Log10 Change In Tumor Burden at End of Rx: -1.4
  Median Day of Death: 13.0

## O=P(O)(NCCCl)NCCCl [IPM, isophosphoramide mustard]
L1210/CPA leukemia; [17]
  % ILS (dying mice only): +114%
  Net log10 reduction in tumor burden after therapy: 7 log10
L1210/CPA leukemia; [18]
  Day 60 survivors/total: 1/10
P388 leukemia [2]
  log cell kill: 4.8 log
  45-Day Surv/Total: 1/5
  % ILS: +64
  Approx. Net Log10 Change In Tumor Burden at End of Rx: -4.8
  Median Day of Death: 18.0
M5076 sarcoma [3]; [14]
  Days delay (T-C): 1.0 days
  Days to 2 Doublings: 10.3 days
  Tumor-free Surv/Total: 0/6
M5076 sarcoma [3]; [15]
  Days delay (T-C): 3.3 days
  Days to 2 Doublings: 12.6 days
  Tumor-free Surv/Total: 0/6
M5076 sarcoma [3]; [16]
  Days delay (T-C): 6.1 days
  Days to 2 Doublings: 15.4 days
  Tumor-free Surv/Total: 0/6
M5076 sarcoma [3]
  days T-C: 6.1 days
Mammary tumor 16/C
  tumor response / comparative activity vs. 16/C: limited regression
[1]
  Days delay (T-C): 33.9
[4]; experiment analogous to MCF-7
  activity vs. MX-1: good activity; also recorded: more active but less so than CPA and Ifos
LOX-IMVI melanoma; 40 mg/kg/dose
  55-Day Surv./Total: 0/5
  % ILS: +52%
  Median Day of Death: 29.0 days
LOX-IMVI melanoma
  increase in life span (ILS): identical ILS
  survivors: no survivors
[5]
  comparative therapeutic efficacy against experimental leukemias and solid tumors: generally comparable to that of CPA and Ifos
L1210/0 leukemia; [19]
  % ILS (dying mice only): +128%
  Net log10 reduction in tumor burden after therapy: 8 log10
L1210/0 leukemia; [20]
  Day 60 survivors/total: 0/10
Lewis lung carcinoma
  comparative activity against Lewis lung carcinoma: equivalent activity at equal host toxicity
  cure rate: 50-70%
  % ILS (increase in life span, excluding survivors): 34
  Log kill total (Log10 cell kill): > 2.1
  Tumour-free survivors: 6/10
In vivo [8]; [21]
  MTD: 100 mg/kg
In vivo [9]
  MTD: 100 mg/kg
[11]
  metabolite of Ifos in patients: major metabolite

## O=P1(NCCCl)OCCCN1CCCl (stereo not shown) [Ifos, ifosfamide]
L1210/CPA leukemia; mouse, in vivo
  % ILS (dying mice only): +85
  Day 60 survivors/total: 0/10
  Net log10 reduction in tumor burden after therapy: 5
L1210/CPA leukemia; mouse, in vivo, ip, 289 mg/kg
  % ILS (dying mice only): +57
  Day 60 survivors/total: 0/10
  Net log10 reduction in tumor burden after therapy: 4
Mammary tumor 16/C
  tumor response / comparative activity vs. 16/C: none of which caused tumor regression
[1]
  Days delay (T-C): > 39.7
[4]; in vivo
  activity vs. MX-1: high activity
L1210/0 leukemia; mouse, in vivo
  % ILS (dying mice only): +185
  Day 60 survivors/total: 0/10
  Net log10 reduction in tumor burden after therapy: 8
L1210/0 leukemia; mouse, in vivo, ip
  MTD Dosage (highest non-toxic dose, LD10 or less): 289 mg/kg
L1210/0 leukemia; mouse, in vivo, ip, 289 mg/kg
  % ILS (dying mice only): +114
  Day 60 survivors/total: 0/9
  Net log10 reduction in tumor burden after therapy: 8
Lewis lung carcinoma
  comparative activity against Lewis lung carcinoma: equivalent activity at equal host toxicity
  cure rate: 50-70%
  % ILS (increase in life span, excluding survivors): 55
  Log kill total (Log10 cell kill): > 4.5
  Tumour-free survivors: 7/10
P388 leukemia [6]; mouse, in vivo
  comparative activity vs. P388 leukemia, historically: comparably active to CM-IPM
M5076 sarcoma [7]; mouse, in vivo
  comparative activity vs. M5076 sarcoma, historically: comparably active to CM-IPM
In vivo [8]; [21]
  MTD: 431 mg/kg
In vivo [9]
  MTD: 300 mg/kg

## N[C@@H](Cc1ccc(N(CCCl)CCCl)cc1)C(=O)O [Melphalan]
[1]
  Days delay (T-C): 28.1

## C=CC=O [acrolein]
[12]
  liver toxicity: glutathione depletion and destruction of mixedfunction oxidase activities
[13]
  teratogenicity: teratogenic
